Like-named read-outs stand apart in the source and are kept apart here. Where only a bound is given, the exact number is not on record here.

Series [1] has as its target T1, LEDGF/p75 IBD-HIV-1 IN interaction (Homo sapiens, UniProt O75475).
T1 sequence (O75475 347-429 limits assumed): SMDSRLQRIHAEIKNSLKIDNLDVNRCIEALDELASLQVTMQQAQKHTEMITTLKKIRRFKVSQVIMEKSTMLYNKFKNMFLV
In words: HTRF-based LEDGF/p75 IBD-IN interaction assay.

A further series deals with LEDGF/p75-IN interaction. Details: method as in PMID 21222490. Conditions: cited from earlier work.
A further series deals with LEDGF/p75 (Homo sapiens, UniProt O75475). Put plainly: Biolayer interferometry (BLI) binding assay. The protocol:
A protein binding assay was performed by biolayer interferometry (BLI) as described previously. First, purified recombinant LEDGF/p75 protein was biotinylated using the Thermo EZLink long-chain biotinylation reagent. Then, biolayer interferometry (BLI) assay was performed using an OctetRED96 instrument from PALL/ForteBio. All assays were run at 30 °C with continuous 1000 rpm shaking. PBS with 0.01% Tween-20 was used as the assay buffer. Briefly, biotinylated LEDGF/p75 protein was tethered on Super Streptavidin (SSA) biosensors (ForteBio) by dipping sensors into 200 µl per well 50 µg/ml protein solutions. The measurement processes were all under computer control. Programme procedures were established as follows: For the initial step, biosensors were washed in assay buffer for 300 s to form a baseline; the biosensors labelled with biotin-LEDGF/p75 were exposed to 100 µM compounds for association, and were monitored for 600 s; and then, the biosensors were moved back into assay buffer to disassociate for another 1800s. Data were fit globally and generated automatically by Octet User software (version 9.0.0.10; Fortebio).

The test system of a further series is HIV-1. Details: method as in PMID 26810656. To be noted: previous study; read-out: 50% effective concentration (EC50), replication of HIV-1; cited from earlier work.
On the set-up of series [2]: method as in PMID 26810656. To be noted: previous study; read-out: half-maximal cytotoxic concentration (CC50); cited from earlier work.
The target in series [3] is Cryptosporidium parvum glucose-6-phosphate isomerase. The arrangement: method as in Eltahan et al.[46]. To be noted: ref Eltahan et al.[46]; cited from earlier work.
Series [4] relates to Tumor marker endothelial 8 and protective antigen interaction. To be noted: cited from earlier work.
Series [5] has as its target Trypanosoma brucei hexokinase 1. Details: method as in Gordhan et al.[47]. Conditions: ref Gordhan et al.[47]; cited from earlier work.
Series [6] concerns Escherichia coli thioredoxin reductase. The arrangement: method as in Lu et al.[48]. Conditions: cell marked (Ki); ref Lu et al.[48]; cited from earlier work.
For series [7], the system named is C-terminal domain of HIV-1 capsid. The arrangement: method as in Thenin-Houssier et al.[39]. Conditions: ref Thenin-Houssier et al.[39]; cited from earlier work.
The target of series [8] is Bacillus anthracis thioredoxin reductase. To be noted: ref Gustafsson et al.[49]; cited from earlier work.
For series [9], the system named is Clostridium difficile cysteine protease domain. Details: method as in Bender et al.[50]. Conditions: ref Bender et al.[50]; cited from earlier work.
Series [10] has as its target New Delhi metallo-β-lactamase. The arrangement: method as in Chiou et al.[51]. To be noted: ref Chiou et al.[51]; cited from earlier work.
Series [11] deals with Mycobacterium tuberculosis antigen 85. The arrangement: method as in Favrot et al.[52]. Conditions: ref Favrot et al.[52]; cited from earlier work.
Series [12] relates to Hepatitis C Virus NS3 Helicase-Nucleic Acid interaction. The arrangement: method as in Mukherjee et al.[53]. To be noted: ref Mukherjee et al.[53], cited from earlier work.
In series [13] the target is Cryptosporidium parvum Inosine 5′-monophosphate dehydrogenase. Details: method as in Sarwono et al.[54]. To be noted: ref Sarwono et al.[54]; cited from earlier work.
Series [14] relates to Pseudomonas aeruginosa Diguanylate Cyclases. The arrangement: method as in Lieberman et al.[55]. Conditions: ref Lieberman et al.[55]; cited from earlier work.

Sequence of LEDGF/p75 (O75475 whole entry): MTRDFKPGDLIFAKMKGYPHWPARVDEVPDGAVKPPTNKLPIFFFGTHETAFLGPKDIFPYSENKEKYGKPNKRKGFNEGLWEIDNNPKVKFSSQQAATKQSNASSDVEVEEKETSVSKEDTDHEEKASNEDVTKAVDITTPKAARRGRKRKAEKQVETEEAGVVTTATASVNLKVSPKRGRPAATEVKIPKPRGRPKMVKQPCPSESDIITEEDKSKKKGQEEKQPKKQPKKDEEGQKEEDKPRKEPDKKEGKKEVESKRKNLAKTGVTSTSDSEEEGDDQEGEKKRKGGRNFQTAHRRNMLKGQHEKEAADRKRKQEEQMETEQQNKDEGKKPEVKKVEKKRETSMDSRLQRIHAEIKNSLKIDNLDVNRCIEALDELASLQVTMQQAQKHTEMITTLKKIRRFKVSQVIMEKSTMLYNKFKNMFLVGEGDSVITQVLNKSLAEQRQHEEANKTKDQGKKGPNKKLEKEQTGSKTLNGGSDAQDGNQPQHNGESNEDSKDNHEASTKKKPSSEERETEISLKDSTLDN

In turn, `COc1cc(/C=C/C(=O)CC(=O)/C=C/c2ccc(O)c(OC)c2)ccc1O` [Compound 2, Curcumin] yielded an IC50 in series [1] of 14500 nM.
In the case of `CCN1C(=O)C=CC1=O` [N-Ethylmaleimide], the IC50 in [1] turned out to be 566000 nM.
On to `O[C@@H](CS)[C@@H](O)CS` (racemic) [DTT, dithiothreitol], for which the “Inhibitory effect of DTT on LEDGF/p75-IN interaction” value in the series on LEDGF/p75-IN interaction (at 50 µM) was “negligible”. For the same compound, the 50% inhibitory concentration (IC50) with LEDGF/p75-IN interaction was 4.5 mM.
Regarding `NC(=O)CI` [Iodoacetamide], in [1] (HTRF, 12-point dose-response 0.024 to 50 µM, His6-HIV-1 IN 50 nM, GST-IBD), the half-maximal inhibitory concentration (IC50) is greater than 1e+07 nM.
Consider `CCN(CC)C(=S)SSC(=S)N(CC)CC` [Disulfiram], for which 23200 nM corresponded to half-maximal inhibition in series [1] (IC50).
The same measure, in the same setting: the value for `O=S(=O)(c1c(O)c(Cl)cc(Cl)c1Cl)c1c(O)c(Cl)cc(Cl)c1Cl` [Compound 3, p38 MAP kinase inhibitor IV] was 117000 nM.
`O=c1c2ccccc2[se]n1-c1ccccc1` [Compound 1, 2-phenyl-1,2-benzisoselenazol-3-one] yielded a Kd on LEDGF/p75 (BLI Octet Red, biotinylated LEDGF/p75, 30 °C) of 13.3 nM. For the same compound, the “Dissociation from LEDGF/p75” value at LEDGF/p75 (BLI, dissociation in assay buffer 1800 s) is listed as “do not show obvious dissociation”. Also, the EC50 in the series with HIV-1 is 1990 nM. Besides, the CC50 in series [2] is 25.4 µM. For the same compound, the IC50 in series [3] was 8.33 µM; in series [4], 1700 nM; in series [5], 50 nM; in series [7], 47 nM; in series [8] it was 1000 nM; in series [9] it was 6.9 nM. Moreover, the IC50 in series [10] is 380 nM; in series [11], 63 nM; in series [12] (first value of cell 1.1/0.9, difference not explained, read-out: IC50 (first of two values printed)), 1100 nM; in series [12] (second value of cell 1.1/0.9, difference not explained, read-out: IC50 (second of two values printed)), 900 nM; in series [13] it was 710 nM; in [14], 5 µM. The same compound showed a 50% inhibitory concentration (IC50) in series [1] of 7700 nM. Besides, the Ki in series [6] is 520 nM. Moreover, the “HTRF signal when IBD was pre-incubated with compound” value in series [1] (IBD pre-incubated with ebselen) is reported as “dramatical decrease”. The “HTRF signal when IN was pre-incubated with compound” value in series [1] (IN pre-incubated with ebselen) is on record as “no obvious signal change”. Besides, the “Inhibitory effect on LEDGF/p75 IBD-IN interaction in the presence of DTT” value in series [1] (in the presence of 50 µM dithiothreitol (DTT)) was “completely abolished”. The “Time-dependent inhibition (change of affinity over time)” value in [1] (over 1 h) was “increase in its affinity”.

The values above are taken from paper PMC7170385, “The selenium-containing drug ebselen potently disrupts LEDGF/p75-HIV-1 integrase interaction by targeting LEDGF/p75” (Journal of Enzyme Inhibition and Medicinal Chemistry, 2020).
